Data on four compounds can be found in ChEMBL document CHEMBL4414634, “Alternatone A, an Unusual Perylenequinone-Related Compound from a Soft-Coral-Derived Strain of the Fungus Alternaria alternata” (J Nat Prod, 2019).

SMILES strings stand for the structures. Activity calls are given as the source filed them. The calls are words filed in the database; no cut-off is given here.

Format in all cases: functional, cell-based
In assay [1] the test system is HeLa. As to the kind of experiment: Antiproliferative activity against human HeLa cells assessed as reduction in cell viability by MTT assay. For orientation: Tetrazolium dyes change colour on reduction, which living cells bring about.
Assay [2] relates to A549. As to the kind of experiment: Antiproliferative activity against human A549 cells assessed as reduction in cell viability by SRB assay.
In assay [3] the test system is HCT-116. As to the kind of experiment: Antiproliferative activity against human HCT116 cells assessed as reduction in cell viability by SRB assay. In general terms: Sulforhodamine B stains cellular protein and so reports cell mass.

Regarding `O=C1C[C@H](O)[C@@H]2c3c(ccc(O)c31)-c1ccc(O)c3c1[C@@]2(O)CCC3=O`, the outcome in assay [1], in assay [2] and in assay [3] was inactive.
Consider `O=C1C[C@@H]2[C@@H]3C(=O)c4c(O)cccc4[C@@H]([C@@H]3O)[C@@H]2c2cccc(O)c21`, for which the result in assay [1], in assay [2] and in assay [3] was inactive.
For `O=C1C[C@H](O)[C@@H]2c3c(ccc(O)c31)-c1ccc(O)c3c1[C@@]2(O)C=CC3=O`, the IC50 in assay [1] worked out at 3100 nM; in assay [2], 2600 nM; in assay [3] it was 2400 nM.
Turning to `O=C1C[C@@H](O)[C@@H]2c3ccc(O)c4c3[C@@H](c3ccc(O)c1c32)[C@H](O)CC4=O`, the outcome in assay [1], in assay [2] and in assay [3] was inactive.

What is called IC50 is the concentration at which inhibition is half-maximal.
